Reference: paper PMC5904360, “Soluble N-Ethylmaleimide-Sensitive Factor Attachment Protein Receptor-Derived Peptides for Regulation of Mast Cell Degranulation” (Frontiers in Immunology, 2018)

Experiments:
RBL-2H3 mast cells = experiment: Degranulation assay, β-hexosaminidase release; type: cell-based, rat; conditions: for inhibition of mast cell degranulation with versus without A23187 pretreatment: PTD-conjugated peptides, read-outs β-hexosaminidase and histamine (Figure 4B); for reduction of β-hexosaminidase release: 10 µM PTD-fused peptide without SLO (LY294002 as positive control), DNP-BSA stimulation, no A23187 pretreatment, three independent experiments (Figure 2A gray bars, 2C); for inhibition of β-hexosaminidase release after A23187 pretreatment: cells pretreated with A23187, sensitized with DNP-IgE, then PTD-conjugated peptide (Figure 4B)
SN23-Syn4-Vp8 complex = molecular target: T1, SN23-Syn4-Vp8 complex (Rattus norvegicus, UniProt O70377+Q08850+Q9WUF4); experiment: Co-immunoprecipitation of SNARE complexes in activated RBL-2H3 cells, anti-SNAP-23 blot; type: cell-based; conditions: peptides added to the medium after A23187 pretreatment; IP of Vp8, blot anti-SNAP-23 (Figure 4C)
T1 construct: Lysates of RBL-2H3 cells; endogenous in cells; host or cells: RBL-2H3 (ATCC CRL-2256)
T1 sequence (Q08850 1-298): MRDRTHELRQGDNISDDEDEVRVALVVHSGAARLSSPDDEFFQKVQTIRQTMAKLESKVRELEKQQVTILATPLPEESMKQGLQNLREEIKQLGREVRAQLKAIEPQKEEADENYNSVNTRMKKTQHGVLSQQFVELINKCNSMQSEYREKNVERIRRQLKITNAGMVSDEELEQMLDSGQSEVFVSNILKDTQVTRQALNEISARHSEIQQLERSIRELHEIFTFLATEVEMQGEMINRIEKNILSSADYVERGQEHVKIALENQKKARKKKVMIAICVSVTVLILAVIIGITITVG
T1 sequence (O70377 1-210): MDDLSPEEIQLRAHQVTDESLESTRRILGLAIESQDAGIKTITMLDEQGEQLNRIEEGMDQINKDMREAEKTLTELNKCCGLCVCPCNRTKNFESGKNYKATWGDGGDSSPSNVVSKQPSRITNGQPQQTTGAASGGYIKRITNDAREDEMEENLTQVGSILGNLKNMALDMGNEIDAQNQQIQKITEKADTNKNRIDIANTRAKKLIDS
T1 sequence (Q9WUF4 1-100): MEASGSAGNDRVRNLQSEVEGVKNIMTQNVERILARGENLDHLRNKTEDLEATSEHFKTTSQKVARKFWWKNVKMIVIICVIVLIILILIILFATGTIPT
Protocol: Lysates of RBL-2H3 cells (0.5–1 × 10^6 cells), which were obtained by the addition of 1 mL lysis buffer (50 mM Tris–HCl, 150 mM NaCl, 1% Triton X-100™, 1 mM EDTA, pH 7.5) supplemented with a protease inhibitor cocktail (Calbiochem®, Merck Millipore, Billerica, MA, USA), were centrifuged at 13,000 g at 4°C to remove cell debris and precleared with 100 µL protein G Sepharose® (GE Healthcare) for 2 h at 4°C. The precleared lysates were incubated with antibodies against SNARE proteins (Syn4, SNAP-23, VAMP2, and VAMP8) for 2 h at 4°C for binding, and then the antibody–antigen complexes were precipitated by incubation with a protein G slurry overnight with constant shaking. After an extensive washing step with lysis buffer, an immunoblotting analysis was performed for the precipitates. The immunoprecipitated proteins and cell lysates were electrophoresed on 12% sodium dodecyl sulfate-polyacrylamide gel electrophoresis gels and then transferred to nitrocellulose blotting membranes (GE Healthcare). After blocking the membranes in TBST (10 mM Tris–HCl, 150 mM NaCl, and 0.05% Tween® 20, pH 8) containing 0.5% BSA and 5% skim milk for 1 h at room temperature, primary anti-SNAP-23 antibody (1:1,000 dilution) in TBST supplemented with 1% BSA and 0.01% sodium azide was added and incubated at 4°C overnight. The membranes were washed with TBST, treated with a horseradish peroxidase-conjugated secondary anti-mouse IgG antibody (A4416, Sigma-Aldrich), and visualized using enhanced chemiluminescence solution for the development of a luminescent signal.

[1] = molecular target: T2, SN23-Syn4-Vp8 SNARE complex (Rattus norvegicus, UniProt O70377+Q08850+Q9WUF4); experiment: SNARE-driven membrane fusion (total lipid mixing) assay with proteoliposomes; type: biochemical; conditions: peptide added after preincubation of T- and V-liposomes at 4°C overnight (partially zippered SNAREs) (Figure 4A)
T2 construct: Syn4 (amino acids 1–298); SNAP-23 (amino acids 1–210); VAMP8 (amino acids 1–100); GST (N, cleaved yes); made in house; host or cells: Escherichia coli Rosetta(DE3)pLysS
T2 sequence (Q08850 1-298): T1 sequence (Q08850 1-298)
T2 sequence (O70377 1-210): T1 sequence (O70377 1-210)
T2 sequence (Q9WUF4 1-100): T1 sequence (Q9WUF4 1-100)

Sequence | inhibition of mast cell degranulation with versus without A23187 pretreatment (RBL-2H3 mast cells) | SNARE complex formation in cells (amount of SN23-Syn4-Vp8 complex) (SN23-Syn4-Vp8 complex) | inhibition of membrane fusion, peptide added after preincubation [1] | reduction of β-hexosaminidase release (RBL-2H3 mast cells) | inhibition of β-hexosaminidase release after A23187 pretreatment (RBL-2H3 mast cells)
EDEMEENLTQVGSILGN [SC23N, 17-mer peptide, N-terminal region of SNAP-23 SNARE motif SC23] | inhibited mast cell degranulation more efficiently than without pretreatment | reduced | inhibitory activities significantly diminished |  | 
LQSEVEGVKNIMTQNVE [Vp8N, 17-mer peptide, N-terminal region of VAMP8 SNARE motif] | inhibited mast cell degranulation more efficiently than without pretreatment | reduced | inhibitory activities significantly diminished | 30–40% | inhibited both histamine and β-hexosaminidase release
SARHSEIQQLERTIREL [Syn4N, 17-mer peptide, N-terminal region of syntaxin 4 SNARE motif] | inhibited mast cell degranulation more efficiently than without pretreatment | reduced | inhibitory activities significantly diminished | 30–40% | inhibited both histamine and β-hexosaminidase release
